Laboratory results published in the RepoRT retention time repository (doi:10.1016/j.jchromb.2020.122105).

Legend:
Conditions in all cases: stereoisomer not certain
[1] = HILIC, Merck SeQuant ZIC-HILIC, 150 × 2.1 mm, 5 µm, 0.75 mL/min, estimated dead time 0.44 min; A: water + 0.1% acetic acid + 10 mM ammonium acetate, pH 4; B: 5% water + 95% acetonitrile + 0.1% acetic acid + 10 mM ammonium acetate, pH 4; gradient (min/%B) 0/95 5/95 20/57 25/57 30/95 40/95
[2] = HILIC, Waters XBridge BEH Amide, 100 × 2.1 mm, 2.5 µm, 0.5 mL/min, estimated dead time 0.44 min; A: water + 0.1% acetic acid + 10 mM ammonium acetate, pH 4; B: 5% water + 95% acetonitrile + 0.1% acetic acid + 10 mM ammonium acetate, pH 4; gradient (min/%B) 0/95 5/95 20/57 25/57 30/95 40/95
[3] = HILIC, Merck SeQuant ZIC-HILIC, 150 × 2.1 mm, 5 µm, 0.75 mL/min, estimated dead time 0.44 min; A: water + 10 mM ammonium formate, pH 6; B: 5% water + 95% acetonitrile + 10 mM ammonium formate, pH 6; gradient (min/%B) 0/95 5/95 20/57 25/57 30/95 40/95
[4] = HILIC, Thermo Scientific Accucore HILIC, 100 × 2.1 mm, 2.6 µm, 0.5 mL/min, estimated dead time 0.44 min; A: water + 0.1% formic acid + 10 mM ammonium formate, pH 3; B: 5% water + 95% acetonitrile + 0.1% formic acid + 10 mM ammonium formate, pH 3; gradient (min/%B) 0/95 5/95 20/57 25/57 30/95 40/95
[5] = RP, Waters ACQUITY UPLC BEH C18, 100 × 2.1 mm, 1.7 µm, 0.1 mL/min, estimated dead time 2.2 min; A: water + 0.1% formic acid, pH 3; B: methanol + 0.1% formic acid, pH 3; gradient (min/%B) 0/5 5/5 25/100 30/100 30.1/5 35/5
[6] = RP, Waters ACQUITY UPLC BEH C18, 100 × 2.1 mm, 1.7 µm, 0.1 mL/min, estimated dead time 2.2 min; A: water + 0.045% formic acid + 0.11% ammonium hydroxide, pH 7; B: methanol; gradient (min/%B) 0/5 5/5 25/95 25.1/100 35/100 35.1/5 45/5
[7] = RP, Waters ACQUITY UPLC BEH C18, 100 × 2.1 mm, 1.7 µm, 0.1 mL/min, estimated dead time 2.2 min; A: water + 0.1% formic acid, pH 3; B: methanol + 0.1% formic acid, pH 3; gradient (min/%B) 0/5 5/5 25/95 25.1/100 35/100 35.1/5 45/5
[8] = RP, Waters CORTECS T3, 100 × 2.1 mm, 2.7 µm, 0.15 mL/min, estimated dead time 1.5 min; A: water + 0.1% formic acid, pH 3; B: methanol + 0.1% formic acid, pH 3; gradient (min/%B) 0/0 1/0 6/5 30/100 35/100 35.1/0 40/0
[9] = RP, Waters ACQUITY UPLC BEH C18, 100 × 2.1 mm, 1.7 µm, 0.2 mL/min, estimated dead time 1.1 min; A: water + 0.025% formic acid + 20 mM ammonium acetate + 0.055% ammonium hydroxide, pH 7; B: methanol; gradient (min/%B) 0/5 5/5 25/100 30/100 30.1/5 35/5
[10] = RP, Waters CORTECS T3, 100 × 2.1 mm, 2.7 µm, 0.25 mL/min, estimated dead time 0.88 min; A: water + 0.1% formic acid, pH 3; B: methanol + 0.1% formic acid, pH 3; gradient (min/%B) 0/0 1/0 6/5 30/100 35/100 35.1/0 40/0
[11] = RP, Waters ACQUITY UPLC BEH C18, 100 × 2.1 mm, 1.7 µm, 0.2 mL/min, estimated dead time 1.1 min; A: water + 0.025% formic acid + 20 mM ammonium acetate + 0.055% ammonium hydroxide, pH 7; B: methanol; gradient (min/%B) 0/5 5/5 25/100 30/100 30.1/5 35/5; remark: listed apart in the source
[12] = RP, Waters CORTECS T3, 100 × 2.1 mm, 2.7 µm, 0.3 mL/min, estimated dead time 0.73 min; A: water + 0.1% formic acid, pH 3; B: methanol + 0.1% formic acid, pH 3; gradient (min/%B) 0/0 5/0 25/100 30/100 30.1/0 35/0
[13] = RP, Waters CORTECS T3, 100 × 2.1 mm, 2.7 µm, 0.2 mL/min, estimated dead time 1.1 min; A: water + 0.1% formic acid, pH 3; B: methanol + 0.1% formic acid, pH 3; gradient (min/%B) 0/5 5/5 25/95 25.1/100 35/100 35.1/5 45/5
[14] = RP, Waters CORTECS T3, 100 × 2.1 mm, 2.7 µm, 0.3 mL/min, estimated dead time 0.73 min; A: water + 0.1% formic acid, pH 3; B: methanol + 0.1% formic acid, pH 3; gradient (min/%B) 0/0 1/0 6/5 30/100 35/100 35.1/0 40/0
[15] = RP, Waters CORTECS T3, 100 × 2.1 mm, 2.7 µm, 0.3 mL/min, estimated dead time 0.73 min; A: water + 0.1% formic acid, pH 3; B: methanol + 0.1% formic acid, pH 3; gradient (min/%B) 0/0 5/0 25/100 30/100 30.1/0 35/0; remark: listed apart in the source
[16] = RP, Waters CORTECS T3, 100 × 2.1 mm, 2.7 µm, 0.25 mL/min, estimated dead time 0.88 min; A: water + 0.1% formic acid, pH 3; B: methanol + 0.1% formic acid, pH 3; gradient (min/%B) 0/5 5/5 25/95 25.1/100 35/100 35.1/5 45/5
[17] = RP, Waters ACQUITY UPLC BEH C18, 100 × 2.1 mm, 1.7 µm, 0.2 mL/min, estimated dead time 1.1 min; A: water + 0.1% formic acid, pH 3; B: methanol + 0.1% formic acid, pH 3; gradient (min/%B) 0/5 5/5 25/100 30/100 30.1/5 35/5
[18] = RP, Waters CORTECS T3, 100 × 2.1 mm, 2.7 µm, 0.3 mL/min, estimated dead time 0.73 min; A: water + 0.1% formic acid, pH 3; B: methanol + 0.1% formic acid, pH 3; gradient (min/%B) 0/0 1/0 6/5 30/100 35/100 35.1/0 40/0; remark: listed apart in the source
[19] = RP, Thermo Scientific Hypercarb, 150 × 2.1 mm, 5 µm, 0.1 mL/min, estimated dead time 3.3 min; A: water + 0.1% formic acid, pH 3; B: methanol + 0.1% formic acid, pH 3; gradient (min/%B) 0/5 5/5 20/100 35/100 35.1/5 45/5
[20] = RP, Waters CORTECS T3, 100 × 2.1 mm, 2.7 µm, 0.2 mL/min, estimated dead time 1.1 min; A: water + 0.1% formic acid, pH 3; B: methanol + 0.1% formic acid, pH 3; gradient (min/%B) 0/0 1/0 6/5 30/100 35/100 35.1/0 40/0
[21] = as above; remark: listed apart in the source
[22] = RP, Waters CORTECS T3, 100 × 2.1 mm, 2.7 µm, 0.3 mL/min, estimated dead time 0.73 min; A: water + 0.1% formic acid, pH 3; B: methanol + 0.1% formic acid, pH 3; gradient (min/%B) 0/5 5/5 25/95 25.1/100 35/100 35.1/5 45/5
[23] = RP, Waters CORTECS T3, 100 × 2.1 mm, 2.7 µm, 0.1 mL/min, estimated dead time 2.2 min; A: water + 0.1% formic acid, pH 3; B: methanol + 0.1% formic acid, pH 3; gradient (min/%B) 0/5 5/5 25/95 25.1/100 35/100 35.1/5 45/5
[24] = RP, Waters CORTECS T3, 100 × 2.1 mm, 2.7 µm, 0.1 mL/min, estimated dead time 2.2 min; A: water + 0.1% formic acid, pH 3; B: methanol + 0.1% formic acid, pH 3; gradient (min/%B) 0/0 1/0 6/5 30/100 35/100 35.1/0 40/0
[25] = RP, Waters CORTECS T3, 100 × 2.1 mm, 2.7 µm, 0.3 mL/min, estimated dead time 0.73 min; A: water + 0.1% formic acid, pH 3; B: methanol + 0.1% formic acid, pH 3; gradient (min/%B) 0/5 5/5 25/100 30/100 30.1/5 35/5
[26] = RP, Waters CORTECS T3, 100 × 2.1 mm, 2.7 µm, 0.15 mL/min, estimated dead time 1.5 min; A: water + 0.1% formic acid, pH 3; B: methanol + 0.1% formic acid, pH 3; gradient (min/%B) 0/5 5/5 25/95 25.1/100 35/100 35.1/5 45/5
[27] = RP, Waters ACQUITY UPLC BEH C18, 100 × 2.1 mm, 1.7 µm, 0.1 mL/min, estimated dead time 2.2 min; A: water + 0.1% formic acid, pH 3; B: methanol + 0.1% formic acid, pH 3; gradient (min/%B) 0/5 5/5 25/95 25.1/100 35/100 35.1/5 45/5; remark: listed apart in the source
[28] = as above; remark: listed apart in the source

Structure (SMILES) | LC retention time [1] | LC retention time [2] | LC retention time [3] | LC retention time [4] | LC retention time [5] | LC retention time [8] | LC retention time [10] | LC retention time [11] | LC retention time [12] | LC retention time [13] | LC retention time [15] | LC retention time [16] | LC retention time [17] | LC retention time [19] | further results
CC(O)(CC(=O)O)CC(=O)O [3-HYDROXY-3-METHYLGLUTARATE] | 12.2 min | 12.1 min | 12.8 min | 11.2 min |  |  |  |  |  |  |  |  |  |  | 
Nc1ncnc2nc[nH]c12 [ADENINE] |  | 2.99 min | 2.16 min | 2.08 min | 2.71 min | 1.8 min | 1.06 min | 1.89 min | 0.91 min | 2.67 min | 0.91 min | 1.06 min | 1.36 min |  | LC retention time [6]: 2.75 min; LC retention time [7]: 2.65 min; LC retention time [9]: 3.46 min; LC retention time [14]: 0.9 min; LC retention time [18]: 0.9 min
NCCC(=O)NC(Cc1cnc[nH]1)C(=O)O (configuration not stated) [CARNOSINE] | 16.3 min | 15 min | 15.9 min | 15.4 min |  |  |  | 1.36 min |  | 2.43 min |  |  |  | 4.86 min | 
NC(C=O)C(O)C(O)C(O)COS(=O)(=O)O [D-GLUCOSAMINE 6-SULFATE] | 15.2 min | 13.1 min | 15 min | 11.8 min |  |  |  |  |  |  |  |  |  |  | 
CC(CCC(=O)NCC(=O)O)C1CCC2C3C(O)CC4CC(O)CCC4(C)C3CC(O)C12C (configuration not stated) [GLYCOCHOLATE] |  |  |  | 9.61 min |  |  |  | 19.5 min |  |  |  | 21.7 min | 21.8 min |  | 
N[C@@H](Cc1cnc[nH]1)C(=O)O [L-HISTIDINE] |  |  |  | 14.9 min |  |  |  |  |  | 2.39 min |  |  |  | 4.72 min | 
CCCCCCCCCCCC(=O)O [LAURIC ACID] |  |  |  | 9.23 min |  |  |  |  |  |  |  |  |  |  | 
CC(=O)NC(CCCCN)C(=O)O [N-ALPHA-ACETYL-L-LYSINE] | 13.4 min | 13.2 min | 13.6 min | 13 min | 2.69 min | 1.78 min | 1.09 min |  | 0.89 min | 2.64 min | 0.89 min |  | 1.34 min | 4.9 min | LC retention time [20]: 1.35 min; LC retention time [9]: 1.37 min; LC retention time [21]: 1.34 min
CCCCCCSCC(NC(=O)CCC(N)C(=O)O)C(=O)NCC(=O)O (configuration not stated) [S-HEXYL-GLUTATHIONE] |  |  |  |  | 20.6 min | 20.8 min | 18.7 min | 12.8 min | 16.2 min | 22.9 min | 16.2 min | 16.6 min | 17.5 min |  | LC retention time [22]: 16 min; LC retention time [6]: 19.8 min; LC retention time [7]: 21.1 min; LC retention time [20]: 19.5 min; LC retention time [23]: 20.5 min; LC retention time [24]: 17.4 min; LC retention time [21]: 19.5 min; LC retention time [14]: 18.1 min; LC retention time [25]: 15.6 min; LC retention time [26]: 18.5 min; LC retention time [27]: 21.2 min; LC retention time [18]: 18.1 min; LC retention time [28]: 21.2 min
